Results: PMC6832134, “Discovery of Novel Integrase Inhibitors Acting outside the Active Site Through High-Throughput Screening” (Molecules, 2019)

How the values were obtained:
HIV-1 = tested on: HIV-1; parameters: method as in http://dtp.nci.nih.gov, [7]; settings: ref http://dtp.nci.nih.gov, [7]; cited from earlier work
HIV-1 IN mutant Y143R = target: T1, HIV-1 IN mutant Y143R (Human immunodeficiency virus type 1 group M subtype B, UniProt P12497, Y1290R); assay: Gel-based IN strand transfer assay, Y143R mutant; assay type: biochemical
T1 construct: RAL-resistant HIV-1 mutant integrases; made in house; host or cells: E. coli RosettaII
Method: IN reactions were carried out by adding drugs or an equivalent volume of 100% DMSO (dimethyl sulfoxide, used as the drug solvent) to a mixture of 20 nM duplex DNA (21T/21B) and 400 nM IN in 50 mM MOPS pH 7.2, 7.5 mM MgCl2, and 14 mM 2-mercaptoethanol. Reactions were performed at 37 °C for 2 h and quenched by addition of an equal volume of loading buffer [formamide containing 1% SDS (sodium dodecyl sulfate), 0.25% bromophenol blue, and xylene cyanol]. Reaction products were separated in 16% polyacrylamide denaturing sequencing gels. Dried gels were visualized using a Typhoon 8600 (GE Healthcare, Piscataway, NJ, USA). Densitometric analyses were performed using the ImageQuant 5.1 software from GE Healthcare. Data analyses (linear regression, IC50 determination, and standard deviation) were performed using Prism 6.05 software from GraphPad.

[1] = target: T2, isolated catalytic core domain (CCD) (51–212) (Human immunodeficiency virus type 1 group M subtype B, UniProt P12497); assay: Schiff base IN-DNA crosslinking assay, isolated CCD; assay type: binding, HIV-1
T2 construct: the isolated catalytic core domain (CCD) (51–212); made in house; host or cells: E. coli RosettaII
From the text: To gain further evidence that NSC34931 interferes with DNA binding, and to determine the role of outer domains in this inhibition, we evaluated the ability of NSC34931 to inhibit the formation of IN-DNA crosslinks using our previously described Schiff base assay. Briefly, a deoxyuracyl nucleotide is incorporated in the DNA substrate to generate an abasic site via uracyl DNA glycosylase. IN forms a covalent complex (Schiff base), which can be stabilized by reduction with sodium borohydride (Figure 5A). Full-length IN, but also the isolated CCD or CTD domains, can crosslink DNA ([…]). Consistent with anisotropy data, NSC34931 suppresses the formation of IN-DNA crosslinks in the context of the full-length IN (Figure 5B, upper gel). Of note, the effective dose to inhibit this reaction is similar to that needed to inhibit 3′-P or ST (about 0.45 µM). In contrast, the IN CCD requires a 10 times higher concentration of compound to prevent DNA crosslinking, confirming that the NTD or the CTD are important for NSC34931 inhibition. Lastly, the same experiment was conducted with the isolated CTD (Figure 5B, lower gel).
Figure 5 Inhibition of IN-DNA binding by NSC34931. (A) Principle of the Schiff base crosslinking assay. An abasic site was introduced by uracil DNA glycosylase in the DNA substrate at the -12 position. […]

HIV-1 integrase = target: T3, HIV-1 integrase (Human immunodeficiency virus type 1 group M subtype B, UniProt P12497); assay: Electrochemiluminescent integrase strand transfer assay (BioVeris), high-throughput screen; assay type: biochemical; settings: single dose 10 µM; read-out: inhibition of IN ST activity
T3 construct: 250 nM of recombinant HIV-1 integrase; made in house; host or cells: E. coli RosettaII
Method: To enable a high-throughput screening, we used the ST assay developed by BioVeris. This proprietary plate-based assay measured stand transfer using electrochemiluminescent technology. First, we validated the assay using HIV-1 IN in the presence of DMSO, or increasing concentrations of a known inhibitor, MA-DKA (also known as 118-D-24, Figure 1A). […] Next, we used MA-DKA as a control in every test plate and screened a large library of molecules. Overall, 3095 compounds were tested as part of the NCI Developmental Therapeutics Program’s small molecule plated sets from the Open Chemical Repository Collection. […] A single dose testing (10 µM) enabled the identification of 130 molecules that inhibited ST by over 50% (light dashed line, Figure 1A). […] NSC153308 is a 2-phenacylsulfanylacetic acid that resembles the diketo acid chemotype. On the other side, NSC119889 is a xanthene derivative similar to V-165 [6]. […] However, the purpose of this study was to identify a new chemotype that might act on IN via a novel mechanism, distinct from known active site inhibitors. Accordingly, we retrieved the chemical structure of the 130 hits and looked for a chemical pattern different from that of conventional strand transfer inhibitors.
This electrochemiluminescent plate-based assay was performed using a BioVeris M-SERIES Analyzer (Gaithersburg, MD, USA). DNA substrates were obtained from BioVeris and used according to the manufacturer’s recommendations. Briefly, a biotinylated donor DNA was incubated for 30 min at 37 °C in the presence of 250 nM of recombinant HIV-1 integrase. Complexes were bound to paramagnetic streptavidin-coated beads (M-280 Dynabeads). After addition of the drug, the integration reaction was initiated by addition of a ruthenium-labeled target DNA. The reaction was carried out for 60 min at 37 °C, before reading on the BioVeris M-SERIES Analyzer.

[2] = tested on: VSV pseudo-typed HIV-1 virus particles; assay: organism not typed; assay type: cell-based

Question: Which “antiviral activity in HIV-1 cytopathic assay” value (HIV-1) does the source give for O=S(=O)(O)c1cc(/N=N/c2cc(S(=O)(=O)O)c3ccccc3c2O)ccc1/C=C/c1ccc(/N=N/c2cc(S(=O)(=O)O)c3ccccc3c2O)cc1S(=O)(=O)O [NSC34931] here?
Answer: antiviral

Question: What about the IC50 (HIV-1 IN mutant Y143R) of the same compound?
Answer: 240 nM

Question: And the “fold higher concentration required to prevent DNA crosslinking vs full-length IN” value [1]?
Answer: 10

Question: What about the inhibition at 10 µM (HIV-1 integrase) of the same compound?
Answer: 77.8%

Question: What about the “Selectivity Index SI” value [2] of the same compound?
Answer: 19.2

Question: And the EC50 ([2]; read-out: Ex Vivo Antiviral Activity EC50)?
Answer: 3070 nM
